The results in this text go back to patent US9061984B2 (University of Louisville Research Foundation, Inc., priority 2008, dated 2015).

Data set [1] is described as follows: Cytotoxicity on VERO cells (MTT), anti-T. cruzi study. The following applies: African green monkey, VERO cells.
The subject of data set [2] is M. tuberculosis H37Rv. The data set is described as follows: Anti-tuberculosis bioassay (tetrazolium microplate MIC). In kind it is cell-based. The following applies: Mycobacterium tuberculosis, read-out: Mycobacterium MIC H37Rv, Table 5.
Data set [3] concerns axenic amastigotes of L. amazonensis (strain MHOM/BR/76/LTB-012). The following applies: Table 8b.
Data set [4] deals with VERO cells. As to the kind of experiment: Cell growth inhibition bioassay (sulforhodamine B). In kind it is cell-based, African Green Monkey. The following applies: 48 h, SRB; for GI50: Chlorocebus sabaeus, Vero, read-out: GI50 in indicated cell line: VERO. Summed up:
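Cytotoxicity is read by sulforhodamine B colorimetry following the Skehan protocol; values are growth inhibition relative to solvent-only wells.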

The nature of data set [5]: Toxicity to peritoneal macrophages (Trypan Blue count). In kind it is cell-based, BALB/C mouse. The following applies: BALB/C, mouse.
Data set [6] has as its system M. tuberculosis H37Rv. The data set is described as follows: Conventional aerobic (MABA) culture assay, luminescence MIC. In kind it is cell-based, Mycobacterium tuberculosis. The settings on record: for MIC: Mycobacterium tuberculosis, 168 h.
The subject of data set [7] is Trypanosoma cruzi (Tulahuen C4). The data set is described as follows: In vitro anti-T. cruzi activity (β-galactosidase CPRG colorimetric assay in VERO monolayer). The following applies: for inhibition at 10 µg/mL / IC50: Trypanosoma cruzi, TULAHUEN, Vero; for inhibition at 10 µg/mL: 120 h, 10 μg/mL of each compound, 120 hours, read-out: T. cruzi Inhib. (%). In kind it is cell-based.

Data set [8] relates to axenic amastigotes of L. amazonensis (strain MHOM/BR/76/LTB-012). The data set is described as follows: microbe, parasite or virus in culture. The settings on record: Leishmania amazonensis.
The next data set concerns 3T3 cells. As to the kind of experiment: Cell growth inhibition bioassay (sulforhodamine B). In kind it is cell-based, mouse. The settings on record: 48 h, SRB; for GI50: Mus musculus, NIH3T3, read-out: GI50 in indicated cell line: 3T3. Summed up:
(§1)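 Cells were exposed to compound alongside matched solvent controls, then stained with sulforhodamine B. Percent growth inhibition was calculated from dye absorbance against the control.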

Data set [9] can be described thus: Cytotoxicity VERO cell (Table 6). The following applies: African green monkey, VERO cells.
Another data set concerns DU145 cells. The data set is described as follows: Cell growth inhibition bioassay (sulforhodamine B). Format: cell-based, human. The following applies: 48 h, SRB; for GI50: Homo sapiens, DU-145, read-out: GI50 in indicated cell line: DU145. The method, boiled down: (§2)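 Growth inhibition was measured colorimetrically with sulforhodamine B staining and expressed as percent inhibition relative to solvent-treated controls. Cell lines were human: MCF-7 breast adenocarcinoma, DU145 and PC3 prostate carcinoma/adenocarcinoma, H460 large cell lung cancer.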

The next data set has as its system HT-29 cells. As to the kind of experiment: Cell growth inhibition bioassay (sulforhodamine B). Format: cell-based, human. The following applies: 48 h, SRB; for GI50: Homo sapiens, HT-29, read-out: GI50 in indicated cell line: HT-29. The method, boiled down:
as §1

The test system of the next data set is M-14 cells. As to the kind of experiment: Cell growth inhibition bioassay (sulforhodamine B). Format: cell-based, human. The settings on record: 48 h, SRB; for GI50: Homo sapiens, M14, read-out: GI50 in indicated cell line: M-14. Summed up: as §1
A further data set has as its system MCF-7 cells. As to the kind of experiment: Cell growth inhibition bioassay (sulforhodamine B). In kind it is cell-based, human. The following applies: 48 h, SRB; for GI50: Homo sapiens, MCF7, read-out: GI50 in indicated cell line: MCF-7. The method, boiled down:
as §2

A further data set relates to K562 cells. The data set is described as follows: Cell growth inhibition bioassay (sulforhodamine B). Format: cell-based, human. The following applies: 48 h, SRB; for GI50: Homo sapiens, K562, read-out: GI50 in indicated cell line: K562. Summed up: as §1
A further data set relates to H460 cells. As to the kind of experiment: Cell growth inhibition bioassay (sulforhodamine B). In kind it is cell-based, human. The settings on record: 48 h, SRB; for GI50: Homo sapiens, NCI-H460, read-out: GI50 in indicated cell line: H460. The method, boiled down: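 Human cancer cells (MCF-7 breast, DU145 and PC3 prostate, H460 large cell lung) were treated with compounds. Growth relative to solvent control was quantified by SRB protein stain.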

The next data set concerns M. tuberculosis MDR. The data set is described as follows: Anti-tuberculosis bioassay (tetrazolium microplate MIC). In kind it is cell-based. The settings on record: Mycobacterium tuberculosis, read-out: Mycobacterium MIC MDR.
Data set [10] deals with VERO cells. As to the kind of experiment: Cytotoxicity on VERO cells (MTT), anti-T. cruzi study. The settings on record: Lab B.
The next data set has as its system peritoneal macrophages. The data set is described as follows: Toxicity to peritoneal macrophages (Trypan Blue count). In kind it is cell-based, BALB/C mouse.
Another data set has as its system VERO cell. The data set is described as follows: Cytotoxicity VERO cell (Table 6). The following applies: Table 6.
The mark [11] stands for this setting: IC50 - VERO Cytotoxicity, Table 2.
Setting [12] is: Lab A, read-out: T. cruzi IC50 Lab A.
The mark [13] stands for this setting: Table 2, read-out: IC50 - T. cruzi.
Setting [14] is: read-out: IC50 Cytotoxicity Against Amastigotes.

Structures are written as SMILES. ≈ marks a conversion by molar mass, not a printed value. Read-outs that look alike come from different tables or passages of the source.

`C(=N/Nc1ncnc2sc3c(c12)CCCC3)/c1ccccc1` [II-01]: the IC50 in data set [1] (Cytotoxicity VERO Lab B, Lab B) was 8 µg/mL (≈ 25.9 µM); in data set [1] (setting [11]), 29 µg/mL (≈ 94 µM); in data set [7] (setting [12]) it was 1.9 µg/mL (≈ 6.16 µM); in data set [7] (Lab B, read-out: T. cruzi IC50 Lab B) it was 4.4 µg/mL (≈ 14.3 µM); in [7] (setting [13]) it was 3.92 µg/mL (≈ 12.7 µM); in data set [8] (setting [14]) it was 3.2 µM. Also, the IC50 was found to be 13.5 µM in data set [8] (read-out: L. amazonensis IC50) and 11.1 µg/mL (≈ 36 µM) in data set [9]. For the same compound, the MIC amounted to 6.25 µg/mL (≈ 20.3 µM) in the data set on M. tuberculosis H37Rv [2]; 23.4 µg/mL (≈ 75.9 µM) against M. tuberculosis H37Rv [6] (aerobic, 7 days, H37Rv); 6.25 µg/mL (≈ 20.3 µM) in the data set with M. tuberculosis MDR. For the same compound, the “Selectivity Index” value in data set [3] turned out to be 0.6. In addition, the GI50 in the data set with VERO cells [4] was 5.3 µg/mL (≈ 17.2 µM); with 3T3 cells it was 6.7 µg/mL (≈ 21.7 µM); in the data set on DU145 cells, 6.2 µg/mL (≈ 20.1 µM); in the data set on HT-29 cells it was 3.8 µg/mL (≈ 12.3 µM); in the data set with M-14 cells, 5.6 µg/mL (≈ 18.2 µM); in the data set with MCF-7 cells, 3.5 µg/mL (≈ 11.3 µM). The GI50 was 4.1 µg/mL (≈ 13.3 µM) in the data set with K562 cells and 5.6 µg/mL (≈ 18.2 µM) with H460 cells. The same compound gave an IC50 at 48 h in data set [5] (Cytotoxicity Macrophages IC50) of 8.7 µM. Further, the “Selectivity Index H37Rv” value in the data set with M. tuberculosis H37Rv [6] (VERO vs MABA MIC) came to 0.5. Also, the “Selectivity Index Lab B” value in [7] (IC50, VERO/IC50, T. cruzi, Lab B) was found to be 1.8. In addition, the inhibition at 10 µg/mL in data set [7] came to 80.1%.

For `C(=Cc1ccccc1)C=NNc1ncnc2sc3c(c12)CCCC3` [II-04], the “Cytotoxicity VERO Lab B” value with VERO cells [10] came to 7.0. In addition, the IC50 in data set [3] (read-out: L. amazonensis IC50) was found to be 5.5 µM; with peritoneal macrophages, 0.6 µM. Moreover, the “GI50 in indicated cell line: VERO” value in the data set with VERO cells [4] is 0.6 µg/mL (≈ 1.79 µM). The “MIC MABA” value in the data set with M. tuberculosis H37Rv [6] (aerobic, 7 days, H37Rv) came to 11.7 µg/mL (≈ 35 µM). Moreover, the “T. cruzi IC50 Lab A” value in data set [7] (Lab A) was found to be 0.4 µg/mL. Besides, the “T. cruzi IC50 Lab B” value in [7] (Lab B) came out at 0.5 µg/mL. In addition, the “GI50 in indicated cell line: 3T3” value in the data set on 3T3 cells turned out to be 1.5 µg/mL (≈ 4.49 µM). For the same compound, the “Cytotoxicity VERO cell” value with VERO cell was 1.2 µg/mL. Also, the “GI50 in indicated cell line: DU145” value in the data set on DU145 cells was 1.8 µg/mL (≈ 5.38 µM). In addition, in the data set with HT-29 cells, the “GI50 in indicated cell line: HT-29” value was 2.7 µg/mL (≈ 8.07 µM). Further, the “GI50 in indicated cell line: M-14” value in the data set with M-14 cells was determined as 1.6 µg/mL (≈ 4.78 µM). In addition, the “GI50 in indicated cell line: MCF-7” value in the data set on MCF-7 cells was 0.7 µg/mL (≈ 2.09 µM). Moreover, the “GI50 in indicated cell line: K562” value in the data set with K562 cells turned out to be 0.5 µg/mL (≈ 1.5 µM). Besides, in the data set on H460 cells, the “GI50 in indicated cell line: H460” value stood at 0.7 µg/mL (≈ 2.09 µM).

For `COc1cc(/C=N\Nc2ncnc3sc4c(c23)CCCC4)cc(OC)c1OC` [II-14], the IC50 in data set [1] (Cytotoxicity VERO Lab B, Lab B) was 11 µg/mL (≈ 27.6 µM); in data set [7] (setting [12]), 3 µg/mL (≈ 7.53 µM); in data set [8] (setting [14]) it was 10.5 µM; in data set [8] (read-out: L. amazonensis IC50), 2.9 µM. For the same compound, the MIC was more than 25 µg/mL in the data set with M. tuberculosis H37Rv [2]; more than 100 µg/mL with M. tuberculosis H37Rv [6] (aerobic, 7 days, H37Rv); more than 25 µg/mL in the data set on M. tuberculosis MDR. Besides, the “Selectivity Index” value in data set [3] is 1.2. Further, the GI50 was 9.7 µg/mL (≈ 24.3 µM) in the data set with VERO cells [4]; 9 µg/mL (≈ 22.6 µM) in the data set on 3T3 cells; 9 µg/mL (≈ 22.6 µM) in the data set with DU145 cells; 4.6 µg/mL (≈ 11.5 µM) in the data set on HT-29 cells; 6.2 µg/mL (≈ 15.6 µM) in the data set with M-14 cells; 4.2 µg/mL (≈ 10.5 µM) with MCF-7 cells. Moreover, the GI50 with K562 cells is 1.9 µg/mL (≈ 4.77 µM); in the data set with H460 cells it was 11.3 µg/mL (≈ 28.4 µM). For the same compound, the IC50 at 48 h was 3.6 µM in data set [5] (Cytotoxicity Macrophages IC50) and more than 10 µM in data set [5] (IC50 Cytotoxicity Against Macrophages). Besides, in [7], the inhibition at 10 µg/mL came to 2%.

Regarding `COc1cc(/C=N\Nc2ncnc3sc4c(c23)CCCC4)cc(OC)c1O` [II-16], the IC50 in data set [1] (setting [11]) was 124 µg/mL (≈ 323 µM); in [7] (setting [12]), 4.9 µg/mL (≈ 12.7 µM); in data set [7] (setting [13]), 8.74 µg/mL (≈ 22.7 µM); in [8] (setting [14]), 21.9 µM; in [8] (read-out: L. amazonensis IC50), 15.7 µM. For the same compound, the MIC with M. tuberculosis H37Rv [2] was more than 25 µg/mL; against M. tuberculosis H37Rv [6] (aerobic, 7 days, H37Rv), more than 100 µg/mL; with M. tuberculosis MDR, more than 25 µg/mL. In data set [3], the “Selectivity Index” value is listed as 3.0. Besides, the GI50 in the data set on VERO cells [4] is more than 62.5 µg/mL; with 3T3 cells, 10.5 µg/mL (≈ 27.3 µM); with DU145 cells, 10.5 µg/mL (≈ 27.3 µM); in the data set on HT-29 cells it was more than 62.5 µg/mL; in the data set with M-14 cells, more than 62.5 µg/mL; with MCF-7 cells, more than 62.5 µg/mL. The GI50 in the data set on K562 cells and with H460 cells was more than 62.5 µg/mL throughout. In data set [5] (Cytotoxicity Macrophages IC50), the IC50 at 48 h was determined as 46.4 µM. Also, the inhibition at 10 µg/mL in [7] amounted to 58.6%.
